According to ChEMBL document CHEMBL1132250, “Synthesis of classical and a nonclassical 2-amino-4-oxo-6-methyl-5-substituted pyrrolo[2,3-d]pyrimidine antifolate inhibitors of thymidylate synthase” (J Med Chem, 1999):
pIC50: −log10 of the molar value.

What was measured:
[1] = molecular target: T1, Thymidylate synthase (Lactobacillus casei, UniProt P00469); assay: Compound was evaluated for the inhibition at a given concentration against Lactobacillus casei Thymidylate synthase; design: species or system Lacticaseibacillus casei
T1 sequence (P00469 whole entry): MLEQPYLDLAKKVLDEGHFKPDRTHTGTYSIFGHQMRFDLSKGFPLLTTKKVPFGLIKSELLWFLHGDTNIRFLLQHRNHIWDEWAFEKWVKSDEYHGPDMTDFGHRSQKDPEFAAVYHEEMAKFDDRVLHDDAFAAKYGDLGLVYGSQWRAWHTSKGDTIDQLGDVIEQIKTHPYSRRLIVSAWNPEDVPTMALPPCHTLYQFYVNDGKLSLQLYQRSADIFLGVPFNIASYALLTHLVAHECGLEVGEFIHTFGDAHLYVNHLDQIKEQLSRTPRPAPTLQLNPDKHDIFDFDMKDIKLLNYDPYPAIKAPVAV

[2] = molecular target: T1, Thymidylate synthase; assay: Compound was evaluated for the inhibition at a given concentration against Lactobacillus casei TS; design: species or system Lacticaseibacillus casei
[3] = molecular target: T2, Thymidylate synthase (Homo sapiens, UniProt P04818); assay: Compound was evaluated for the inhibition at a given concentration against recombinant human TS
[4] = molecular target: T2, Thymidylate synthase; assay: Compound was evaluated for the inhibition at a given concentration against recombinant human Thymidylate synthase

T2 sequence (P04818 whole entry): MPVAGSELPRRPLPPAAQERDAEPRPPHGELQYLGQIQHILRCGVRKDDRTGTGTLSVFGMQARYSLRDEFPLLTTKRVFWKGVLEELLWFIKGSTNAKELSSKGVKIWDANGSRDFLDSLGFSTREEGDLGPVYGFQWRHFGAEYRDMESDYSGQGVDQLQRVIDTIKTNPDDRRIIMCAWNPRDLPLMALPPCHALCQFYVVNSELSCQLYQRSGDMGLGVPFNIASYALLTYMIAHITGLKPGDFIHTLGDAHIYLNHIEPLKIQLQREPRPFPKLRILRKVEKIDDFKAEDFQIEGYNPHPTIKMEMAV

Compound | pIC50 [1] | pIC50 [2] | pIC50 [3] | pIC50 [4]
Cc1[nH]c2nc(N)[nH]c(=O)c2c1Sc1ccc(C(=O)NC(CCC(=O)O)C(=O)O)cc1 (configuration not stated) | 7.68 | – | – | –
C#CCN(Cc1c(C)[nH]c2nc(N)nc(O)c12)c1ccc(C(=O)N[C@H](CCC(=O)O)C(=O)O)cc1 | 4.05 | – | – | –
Cc1[nH]c2nc(N)nc(O)c2c1CNc1ccc(C(=O)N[C@H](CCC(=O)O)C(=O)O)cc1 | – | 3.74 | 3.74 | –
Cc1[nH]c2nc(N)[nH]c(=O)c2c1CNCc1ccc(C(=O)N[C@H](CCC(=O)O)C(=O)O)cc1 | 3.44 | – | – | –
Cc1[nH]c2nc(N)nc(O)c2c1CSc1ccncc1 | < 4.59 | – | – | < 4.60
